{"source": "patent US12721846B2", "about": "“Methods for treating behavioral and psychological symptoms in patients with dementia” (SUVEN LIFE SCIENCES LIMITED, priority 2019, dated 2026)", "key": {"[1]": {"details": "30 mg daily dose; patients with AD; cited from earlier work"}, "[2]": {"details": "cited from earlier work"}, "[3]": {"tested_on": "norepinephrine and dopamine levels in prefrontal cortex", "assay": "Microdialysis: modulation of norepinephrine and dopamine levels in cortex", "format": "in vivo, rat", "details": "male Wistar rats, masupirdine 3 mg/kg p.o., donepezil or memantine 1 mg/kg s.c.", "from_the_text": "Male Wistar rats (240-300 g body weight) were stereotaxically implanted with a microdialysis guide cannula in prefrontal cortex (PFC; AP: +3.2 mm, ML: −0.5 mm, DV: −1.0 mm) under isoflurane anesthesia. […] The rats were allowed to recover individually for four days in a round bottom Plexiglas bowl with free access to feed and water.\nSixteen hours before start of the study, a pre-equilibrated microdialysis probe (4 mm dialysis membrane) was inserted into PFC through the guide cannula. On the day of study, probe was perfused with artificial cerebrospinal fluid (aCSF; NaCl 150 mmol, KCl 3.0 mmol, MgCl2 0.9 mmol, CaCl2. 2H2O 1.7 mmol, pH 6.2) at a flow rate of 1.5 μL/min and a stabilization period of 2 h was maintained. […] Dialysates were stored below −50° C. prior to analysis.\nNorepinephrine and dopamine levels in dialysates were quantified using LC-MS/MS method.\nStatistical significance was considered at a p value less than 0.05."}, "[4]": {"tested_on": "Swiss albino mice (aggression, duration of attack)", "assay": "Resident-intruder task", "format": "in vivo, mouse", "details": "masupirdine 0.30 mg/kg p.o. 60 min prior; donepezil or memantine 0.30 mg/kg i.p. 30 min prior; 10 min exposure", "procedure": "Male Swiss albino mice of weight range 30-40 g (Resident) and 15-25 g (Intruder) were used. Resident mice were habituated individually with an ovariectomized female mouse in each cage for at least 2 weeks and intruders were habituated socially for at least 5 days. β-Estradiol at a dose of 0.2 mg/kg, s.c. was administered to ovariectomized female mice during habituation. After habituation for 3 weeks, the intruder was exposed to resident mice for a period of 10 min in the home cage of resident animal and duration of attack was recorded for two days (day 1 & 2). During this 10 min exposure period, ovariectomized female mice were removed from resident cage, resident animals were randomized based on their duration of attack. On day 4 (from initial exposure), resident animals were administered respective treatments. […] After post dose interval resident mice were exposed to same intruder for 10 min and duration of attack was recorded. Data were analyzed using GraphPad Prism software."}, "[5]": {"tested_on": "DOI induced head twitch response (model of hallucination)", "assay": "DOI induced head twitch response", "format": "in vivo, rat", "details": "1 mg/kg, p.o.; DOI 5 mg/kg s.c.; 10 min", "procedure": "DOI induced head twitch response is considered to be a behavioral model of hallucination (Pharmacol Rep. 2012; 64(6):1567-72). Male Wistar rats of 200-290 g were weighed and randomized according to their body weights. On day 1, rats were first habituated to the arena for 15 min. […] 15 min before the trial, rats were subjected to habituation and immediately following the habituation, DOI, 5 mg/kg s.c was administered. The rats were then placed in the arena and head twitches were recorded for 10 min. Data were analyzed using GraphPad Prism software."}}, "note": "Entries after “also recorded” stand apart in the source; their conditions may differ."}
{"smiles": "CN(C)CCCC1(c2ccc(F)cc2)OCc2cc(C#N)ccc21", "note": "(centres unmarked) [Citalopram]", "values": [{"measurement": "adverse effects seen in treatment group", "setting": "[1]", "value": "Worsening of cognition; also recorded: QT interval prolongation"}]}
{"smiles": "CC(C)COc1ccc(CNC(=O)N(Cc2ccc(F)cc2)C2CCN(C)CC2)cc1", "note": "[Pimavanserin]", "values": [{"measurement": "effect for agitation", "setting": "[2]; AD study", "value": "no effect"}, {"measurement": "effect on NPI-NH psychosis scale", "setting": "[2]; week 6", "value": "statistically significant effect"}]}
{"smiles": "CC12CC3CC(C)(C1)CC(N)(C3)C2", "note": "[memantine]", "values": [{"measurement": "cortical dopamine levels, AUC of percent change", "setting": "[3]", "value": "327.75±24.99"}, {"measurement": "cortical norepinephrine levels, AUC of percent change", "setting": "[3]", "value": "371.34±22.45"}, {"measurement": "duration of attack compared with basal", "setting": "[4]", "value": "decrease in duration of attack when compared with its basal; however it was not statistically significant"}]}
{"smiles": "COc1ccc2c(c1)c(CN1CCN(C)CC1)cn2S(=O)(=O)c1ccccc1Br", "note": "[masupirdine, 1-[(2-bromophenyl)sulfonyl]-5-methoxy-3-[(4-methyl-1-piperazinyl)methyl]-1H-indole]", "values": [{"measurement": "number of head twitches", "setting": "[5]", "value": "significantly reduced the number of head twitches"}, {"measurement": "duration of attack compared with basal", "setting": "[4]", "value": "equal duration of attack"}]}
